According to the supplement of paper PMC8967900:
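Note: ALL cell lines in 384-well plates, five doses spanning 10,000-fold, each plate scaled between vehicle and 100 µmol/L benzalkonium chloride controls, sDSS an adapted area-under-curve metric.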

These molecules were tested on MHH-CALL-3 (assay: selective drug sensitivity score (sDSS, relative to normal bone marrow) (sDSS (score)); higher = more potent and effective on the cell line relative to normal bone marrow cells). Details: 72 h.
For `CC(C)Oc1ccc(-c2nn([C@@H](C)c3oc4ccc(F)cc4c(=O)c3-c3cccc(F)c3)c3ncnc(N)c23)cc1F` [TGR-1202] (top concentration 2500 nM), the “selective drug sensitivity score” value was -2.56. For `CN(C(=O)c1ccc(F)cc1C(F)(F)F)C1CCN(c2nnc(-c3ccnn3C)c3ccccc23)CC1` [Taladegib] (top concentration 10000 nM), the “selective drug sensitivity score” value was -0.32. `COc1cc(Nc2ncc(F)c(Nc3ccc4c(n3)NC(=O)C(C)(C)O4)n2)cc(OC)c1OC` [Tamatinib] (top concentration 10000 nM) was tested, and the “selective drug sensitivity score” value was -5.42. In the case of `Nc1cc(F)ccc1NC(=O)c1ccc(CNC(=O)/C=C/c2cccnc2)cc1` [Tucidinostat] (top concentration 10000 nM), the “selective drug sensitivity score” value is reported as 11.4. With `CN[C@@H]1C[C@H]2O[C@@](C)([C@@H]1OC)n1c3ccccc3c3c4c(c5c6ccccc6n2c5c31)C(=O)N[C@H]4O` [UCN-01] (top concentration 10000 nM) the “selective drug sensitivity score” value was 6.24. For `CC(C)Nc1cc(-c2c[nH]c(C(=O)N[C@H](CO)c3cccc(Cl)c3)c2)c(Cl)cn1` [Ulixertinib] (top concentration 10000 nM), the “selective drug sensitivity score” value was -4.38. `Cn1ncc(Cl)c1-c1cc(C(=O)N[C@H](CN)Cc2ccc(F)c(F)c2)oc1Cl` [Uprosertib] (top concentration 10000 nM) was tested, and the “selective drug sensitivity score” value was -1.4. In the case of `C=CC(=O)N1CC/C(=C\c2ccc(F)c([N+](=O)[O-])c2)C(=O)/C(=C/c2ccc(F)c([N+](=O)[O-])c2)C1` [VLX1570] (top concentration 10000 nM), the “selective drug sensitivity score” value is reported as 5.98. In the case of `C[C@@H]1COC(Nc2ccc3ncnc(Nc4ccc(OCc5nccs5)c(Cl)c4)c3c2)=N1` [Varlitinib] (top concentration 10000 nM), the “selective drug sensitivity score” value is reported as -0.18. For `CNC(=O)c1cccc(-c2ccc3c(N4CCOC[C@@H]4C)nc(N4CCOC[C@@H]4C)nc3n2)c1` [Vistusertib] (top concentration 10000 nM), the “selective drug sensitivity score” value was 2.12.

Each molecule was assayed on TANOUE in the same assay as above. Details: 72 h.
With `CC(C)Oc1ccc(-c2nn([C@@H](C)c3oc4ccc(F)cc4c(=O)c3-c3cccc(F)c3)c3ncnc(N)c23)cc1F` [TGR-1202] (top concentration 2500 nM) the “selective drug sensitivity score” value was -2.56. For `CN(C(=O)c1ccc(F)cc1C(F)(F)F)C1CCN(c2nnc(-c3ccnn3C)c3ccccc23)CC1` [Taladegib] (top concentration 10000 nM), the “selective drug sensitivity score” value was 4.98. In the case of `COc1cc(Nc2ncc(F)c(Nc3ccc4c(n3)NC(=O)C(C)(C)O4)n2)cc(OC)c1OC` [Tamatinib] (top concentration 10000 nM), the “selective drug sensitivity score” value is reported as -5.32. `Nc1cc(F)ccc1NC(=O)c1ccc(CNC(=O)/C=C/c2cccnc2)cc1` [Tucidinostat] (top concentration 10000 nM) was tested, and the “selective drug sensitivity score” value was -8.66. `CN[C@@H]1C[C@H]2O[C@@](C)([C@@H]1OC)n1c3ccccc3c3c4c(c5c6ccccc6n2c5c31)C(=O)N[C@H]4O` [UCN-01] (top concentration 10000 nM) was tested, and the “selective drug sensitivity score” value was -9.56. In the case of `CC(C)Nc1cc(-c2c[nH]c(C(=O)N[C@H](CO)c3cccc(Cl)c3)c2)c(Cl)cn1` [Ulixertinib] (top concentration 10000 nM), the “selective drug sensitivity score” value is reported as -4.38. `Cn1ncc(Cl)c1-c1cc(C(=O)N[C@H](CN)Cc2ccc(F)c(F)c2)oc1Cl` [Uprosertib] (top concentration 10000 nM) was tested, and the “selective drug sensitivity score” value was -1.2. For `C=CC(=O)N1CC/C(=C\c2ccc(F)c([N+](=O)[O-])c2)C(=O)/C(=C/c2ccc(F)c([N+](=O)[O-])c2)C1` [VLX1570] (top concentration 10000 nM), the “selective drug sensitivity score” value was -6.32. For `C[C@@H]1COC(Nc2ccc3ncnc(Nc4ccc(OCc5nccs5)c(Cl)c4)c3c2)=N1` [Varlitinib] (top concentration 10000 nM), the “selective drug sensitivity score” value was -0.18. For `CNC(=O)c1cccc(-c2ccc3c(N4CCOC[C@@H]4C)nc(N4CCOC[C@@H]4C)nc3n2)c1` [Vistusertib] (top concentration 10000 nM), the “selective drug sensitivity score” value was -2.78.

The molecules below were run on 697 in the same assay as above. Details: 72 h.
For `CC(C)Oc1ccc(-c2nn([C@@H](C)c3oc4ccc(F)cc4c(=O)c3-c3cccc(F)c3)c3ncnc(N)c23)cc1F` [TGR-1202] (top concentration 2500 nM), the “selective drug sensitivity score” value was 0.44. For `CN(C(=O)c1ccc(F)cc1C(F)(F)F)C1CCN(c2nnc(-c3ccnn3C)c3ccccc23)CC1` [Taladegib] (top concentration 10000 nM), the “selective drug sensitivity score” value was 1.88. For `COc1cc(Nc2ncc(F)c(Nc3ccc4c(n3)NC(=O)C(C)(C)O4)n2)cc(OC)c1OC` [Tamatinib] (top concentration 10000 nM), the “selective drug sensitivity score” value was 1.28. With `Nc1cc(F)ccc1NC(=O)c1ccc(CNC(=O)/C=C/c2cccnc2)cc1` [Tucidinostat] (top concentration 10000 nM) the “selective drug sensitivity score” value was 6.34. In the case of `CN[C@@H]1C[C@H]2O[C@@](C)([C@@H]1OC)n1c3ccccc3c3c4c(c5c6ccccc6n2c5c31)C(=O)N[C@H]4O` [UCN-01] (top concentration 10000 nM), the “selective drug sensitivity score” value is reported as 12.9. For `CC(C)Nc1cc(-c2c[nH]c(C(=O)N[C@H](CO)c3cccc(Cl)c3)c2)c(Cl)cn1` [Ulixertinib] (top concentration 10000 nM), the “selective drug sensitivity score” value was 1.62. `Cn1ncc(Cl)c1-c1cc(C(=O)N[C@H](CN)Cc2ccc(F)c(F)c2)oc1Cl` [Uprosertib] (top concentration 10000 nM) was tested, and the “selective drug sensitivity score” value was 0.3. With `C=CC(=O)N1CC/C(=C\c2ccc(F)c([N+](=O)[O-])c2)C(=O)/C(=C/c2ccc(F)c([N+](=O)[O-])c2)C1` [VLX1570] (top concentration 10000 nM) the “selective drug sensitivity score” value was -1.02. With `C[C@@H]1COC(Nc2ccc3ncnc(Nc4ccc(OCc5nccs5)c(Cl)c4)c3c2)=N1` [Varlitinib] (top concentration 10000 nM) the “selective drug sensitivity score” value was 3.82. For `CNC(=O)c1cccc(-c2ccc3c(N4CCOC[C@@H]4C)nc(N4CCOC[C@@H]4C)nc3n2)c1` [Vistusertib] (top concentration 10000 nM), the “selective drug sensitivity score” value was 15.1.

Each molecule was assayed on KASUMI-10 in the same assay as above. Details: 72 h.
In the case of `CC(C)Oc1ccc(-c2nn([C@@H](C)c3oc4ccc(F)cc4c(=O)c3-c3cccc(F)c3)c3ncnc(N)c23)cc1F` [TGR-1202] (top concentration 2500 nM), the “selective drug sensitivity score” value is reported as -2.56. With `CN(C(=O)c1ccc(F)cc1C(F)(F)F)C1CCN(c2nnc(-c3ccnn3C)c3ccccc23)CC1` [Taladegib] (top concentration 10000 nM) the “selective drug sensitivity score” value was -1.12. `COc1cc(Nc2ncc(F)c(Nc3ccc4c(n3)NC(=O)C(C)(C)O4)n2)cc(OC)c1OC` [Tamatinib] (top concentration 10000 nM) was tested, and the “selective drug sensitivity score” value was 8.58. For `Nc1cc(F)ccc1NC(=O)c1ccc(CNC(=O)/C=C/c2cccnc2)cc1` [Tucidinostat] (top concentration 10000 nM), the “selective drug sensitivity score” value was 3.04. For `CN[C@@H]1C[C@H]2O[C@@](C)([C@@H]1OC)n1c3ccccc3c3c4c(c5c6ccccc6n2c5c31)C(=O)N[C@H]4O` [UCN-01] (top concentration 10000 nM), the “selective drug sensitivity score” value was 6.94. For `CC(C)Nc1cc(-c2c[nH]c(C(=O)N[C@H](CO)c3cccc(Cl)c3)c2)c(Cl)cn1` [Ulixertinib] (top concentration 10000 nM), the “selective drug sensitivity score” value was -3.08. In the case of `Cn1ncc(Cl)c1-c1cc(C(=O)N[C@H](CN)Cc2ccc(F)c(F)c2)oc1Cl` [Uprosertib] (top concentration 10000 nM), the “selective drug sensitivity score” value is reported as -1.4. In the case of `C=CC(=O)N1CC/C(=C\c2ccc(F)c([N+](=O)[O-])c2)C(=O)/C(=C/c2ccc(F)c([N+](=O)[O-])c2)C1` [VLX1570] (top concentration 10000 nM), the “selective drug sensitivity score” value is reported as 1.58. For `C[C@@H]1COC(Nc2ccc3ncnc(Nc4ccc(OCc5nccs5)c(Cl)c4)c3c2)=N1` [Varlitinib] (top concentration 10000 nM), the “selective drug sensitivity score” value was -0.18. For `CNC(=O)c1cccc(-c2ccc3c(N4CCOC[C@@H]4C)nc(N4CCOC[C@@H]4C)nc3n2)c1` [Vistusertib] (top concentration 10000 nM), the “selective drug sensitivity score” value was 0.32.

The molecules below were run on KOPN-8 in the same assay as above. Details: 72 h.
With `CC(C)Oc1ccc(-c2nn([C@@H](C)c3oc4ccc(F)cc4c(=O)c3-c3cccc(F)c3)c3ncnc(N)c23)cc1F` [TGR-1202] (top concentration 2500 nM) the “selective drug sensitivity score” value was 4.54. `CN(C(=O)c1ccc(F)cc1C(F)(F)F)C1CCN(c2nnc(-c3ccnn3C)c3ccccc23)CC1` [Taladegib] (top concentration 10000 nM) was tested, and the “selective drug sensitivity score” value was 6.68. In the case of `COc1cc(Nc2ncc(F)c(Nc3ccc4c(n3)NC(=O)C(C)(C)O4)n2)cc(OC)c1OC` [Tamatinib] (top concentration 10000 nM), the “selective drug sensitivity score” value is reported as -2.12. In the case of `Nc1cc(F)ccc1NC(=O)c1ccc(CNC(=O)/C=C/c2cccnc2)cc1` [Tucidinostat] (top concentration 10000 nM), the “selective drug sensitivity score” value is reported as 12.4. For `CN[C@@H]1C[C@H]2O[C@@](C)([C@@H]1OC)n1c3ccccc3c3c4c(c5c6ccccc6n2c5c31)C(=O)N[C@H]4O` [UCN-01] (top concentration 10000 nM), the “selective drug sensitivity score” value was 10.6. With `CC(C)Nc1cc(-c2c[nH]c(C(=O)N[C@H](CO)c3cccc(Cl)c3)c2)c(Cl)cn1` [Ulixertinib] (top concentration 10000 nM) the “selective drug sensitivity score” value was 5.42. In the case of `Cn1ncc(Cl)c1-c1cc(C(=O)N[C@H](CN)Cc2ccc(F)c(F)c2)oc1Cl` [Uprosertib] (top concentration 10000 nM), the “selective drug sensitivity score” value is reported as 9.1. With `C=CC(=O)N1CC/C(=C\c2ccc(F)c([N+](=O)[O-])c2)C(=O)/C(=C/c2ccc(F)c([N+](=O)[O-])c2)C1` [VLX1570] (top concentration 10000 nM) the “selective drug sensitivity score” value was 3.88. With `C[C@@H]1COC(Nc2ccc3ncnc(Nc4ccc(OCc5nccs5)c(Cl)c4)c3c2)=N1` [Varlitinib] (top concentration 10000 nM) the “selective drug sensitivity score” value was 8.32. With `CNC(=O)c1cccc(-c2ccc3c(N4CCOC[C@@H]4C)nc(N4CCOC[C@@H]4C)nc3n2)c1` [Vistusertib] (top concentration 10000 nM) the “selective drug sensitivity score” value was 19.7.
